According to patent US11760733B2, “Small molecule regulators of mitochondrial fusion and methods of use thereof” (Washington University, priority 2017, dated 2023):
Entries after “also recorded” stand apart in the source; their conditions may differ.

Columns and labels:
Mfn2 null MEFs = assay: Mitochondrial elongation (aspect ratio) fusogenicity assay; type: cell-based, mouse; conditions: for Emax: Mus musculus, read-out: % long compare to B
Text: A cultured murine embryonic fibroblast assay system was used in which mitochondrial elongation (an increase in aspect ratio) reflects enhanced mitochondrial fusion.
A pharmacophore model was generated based on the interactions of HR1 and HR2 domains in the calculated structural model of Mfn2 in the closed conformation. The key features included hydrophobic interactions involving Mfn2 HR1: Val372 and Met376, and aromatic interactions and hydrogen bonding involving Mfn2 HR1 His380. […] A library comprising ˜14 million commercially available compounds was prepared in silico and evaluated using PHASE to fit these criteria. Top ranked hits were clustered, and filtered based on pharmacological properties using Qikprop. The top 55 (see TABLE 4) commercially available small molecules conforming to the model were selected for functional screening and purchased in 1 mg aliquots. Each compound was dissolved to a stock concentration of 10 mM in DMSO and applied to Mfn2 null MEFs overnight at a final concentration of 1 mM. […] Images were acquired by confocal microscopy. Each compound was scored for fusogenicity (see e.g., FIG. 24A) and % cell death (see e.g., FIG. 24B).
Wild-type MEFs were prepared from E10.5 c57/bl6 mouse embryos. […] MEFs were subcultured in DMEM (4.5 g/L glucose) plus 10% fetal bovine serum, 1× nonessential amino acids, 2 mM L-glutamine, 100U/ml penicillin and 100 ug/ml streptomycin.
Cells were excited with 408 nm (Hoechst), […] (MitoTracker Green and Calcein AM, GFP), or 637 nm (TMRE, MitoTracker Orange, Ethidium homodimer-1, and AF594-Dextran) laser diodes. For mitochondrial elongation studies mitochondrial aspect ratio (long axis/short axis) was calculated using automated edge detection and Image J software. Mitochondrial depolarization was calculated as % of green mitochondria visualized on MitoTracker Green and TMRE merged images, expressed as green/(green+yellow mitochondria)×100.

[1] = Solubility of library compounds in DMSO stock; type: physicochemical; conditions: stock concentration of 10 mM in DMSO
Protocol: A pharmacophore model was generated based on the interactions of HR1 and HR2 domains in the calculated structural model of Mfn2 in the closed conformation. The key features included hydrophobic interactions involving Mfn2 HR1: Val372 and Met376, and aromatic interactions and hydrogen bonding involving Mfn2 HR1 His380. […] A library comprising ˜14 million commercially available compounds was prepared in silico and evaluated using PHASE to fit these criteria. Top ranked hits were clustered, and filtered based on pharmacological properties using Qikprop. The top 55 (see TABLE 4) commercially available small molecules conforming to the model were selected for functional screening and purchased in 1 mg aliquots. Each compound was dissolved to a stock concentration of 10 mM in DMSO and applied to Mfn2 null MEFs overnight at a final concentration of […]. Eleven of the library members were not soluble in DMSO at the required concentration. The 44 fully soluble compounds were screened in groups of 6 at a time for cytotoxicity (calcein AM/ethidium homodimer staining; ThermoFisher LIVE/DEAD Assay cat # L3224) and fusogenicity (increase in mitochondrial aspect ratio; MitoTracker Orange staining) compared to cells treated overnight with […] of the parent HR1 367-384 mitofusin agonist peptide (positive control) or vehicle (DMSO). Images were acquired by confocal microscopy. Each compound was scored for fusogenicity (see e.g., FIG. 24A) and % cell death (see e.g., FIG. 24B). Pharmacophore model fit generally correlated with actual fusogenic activity (Pearson correlation coefficient r=0.214; see e.g., FIG. 24A, inset; TABLE 4).

Compound | Emax (Mfn2 null MEFs) [%] | further results
CCn1c(SCC(=O)Nc2sc3c(c2C(N)=O)CCC3)nnc1-c1ccc(Cl)cc1 [1-A1, 2-(2-{[5-(4-chlorophenyl)-4-ethyl-4H-1,2,4-triazol-3-yl]sulfanyl}acetamido)-4H,5H,6H-cyclopenta[b]thiophene-3-carboxamide] | 11 | 
NC(=O)c1c(NC(=O)CSc2nnc(-c3ccccc3F)n2C2CC2)sc2c1CCC2 [1-A2, 2-(2-{[4-cyclopropyl-5-(2-fluorophenyl)-4H-1,2,4-triazol-3-yl]sulfanyl}acetamido)-4H,5H,6H-cyclopenta[b]thiophene-3-carboxamide] | -23 | 
CCn1c(SC(C)C(=O)Nc2sc3c(c2C(N)=O)CCC3)nnc1-c1ccoc1C (stereo not drawn) [1-A6, 2-(2-{[4-ethyl-5-(2-methylfuran-3-yl)-4H-1,2,4-triazol-3-yl]sulfanyl}propanamido)-4H,5H,6H-cyclopenta[b]thiophene-3-carboxamide] | -31 | 
COCCn1c(SC(C)C(=O)Nc2sc3c(c2C(N)=O)CCC3)nnc1-c1ccncc1 (stereo not drawn) [1-B12, 2-(2-{[4-(2-methoxyethyl)-5-(pyridin-4-yl)-4H-1,2,4-triazol-3-yl]sulfanyl}propanamido)-4H,5H,6H-cyclopenta[b]thiophene-3-carboxamide] | -1 | 
Cc1ccc(-n2c(C)nnc2SCC(=O)Nc2sc3c(c2C(N)=O)CCCC3)cc1 [1-D3, 2-(2-{[5-methyl-4-(4-methylphenyl)-4H-1,2,4-triazol-3-yl]sulfanyl}acetamido)-4,5,6,7-tetrahydro-1-benzothiophene-3-carboxamide] | 1 | 
CC1CCc2c(sc(NC(=O)CSc3nnc(C4CC4)n3-c3ccccc3)c2C(N)=O)C1 (stereo not drawn) [1-D5, 2-{2-[(5-cyclopropyl-4-phenyl-4H-1,2,4-triazol-3-yl)sulfanyl]acetamido}-6-methyl-4,5,6,7-tetrahydro-1-benzothiophene-3-carboxamide] | 2 | 
Cc1occc1-c1nnc(SCC(=O)Nc2sc3c(c2C(N)=O)CCC3)n1-c1ccccc1 [1-D10, 2-(2-{[5-(2-methylfuran-3-yl)-4-phenyl-4H-1,2,4-triazol-3-yl]sulfanyl}acetamido)-4H,5H,6H-cyclopenta[b]thiophene-3-carboxamide] | 17 | 
Cc1ccccc1-n1c(SCC(=O)Nc2sc3c(c2C(N)=O)CCCC3)nnc1-c1cccnc1 [1-E12, 2-(2-{[4-(2-methylphenyl)-5-(pyridin-3-yl)-4H-1,2,4-triazol-3-yl]sulfanyl}acetamido)-4,5,6,7-tetrahydro-1-benzothiophene-3-carboxamide] | -3 | 
NC(=O)c1c(NC(=O)CSc2nnc(-c3cccnc3)n2-c2ccccc2)sc2c1CCCC2 [1-G3, 2-(2-{[4-phenyl-5-(pyridin-3-yl)-4H-1,2,4-triazol-3-yl]sulfanyl}acetamido)-4,5,6,7-tetrahydro-1-benzothiophene-3-carboxamide] | 4 | 
NC(=O)c1c(NC(=O)CSc2nnc3n2CCCCC3)sc2c1CCCC2 [1-G10, 2-(2-{5H,6H,7H,8H,9H-[1,2,4]triazolo[4,3-a]azepin-3-ylsulfanyl}acetamido)-4,5,6,7-tetrahydro-1-benzothiophene-3-carboxamide] | -3 | 
Cc1ccccc1-n1c(SCC(=O)Nc2sc3c(c2C(N)=O)CCC3)nnc1-c1ccncc1 [1-H1, 2-(2-{[4-(2-methylphenyl)-5-(pyridin-4-yl)-4H-1,2,4-triazol-3-yl]sulfanyl}acetamido)-4H,5H,6H-cyclopenta[b]thiophene-3-carboxamide] | -3 | 
Cn1c(SCC(=O)Nc2sc3c(c2C(N)=O)CCC3)nnc1-c1ccc(Cl)cc1 [1-H2, 2-(2-{[5-(4-chlorophenyl)-4-methyl-4H-1,2,4-triazol-3-yl]sulfanyl}acetamido)-4H,5H,6H-cyclopenta[b]thiophene-3-carboxamide] | 0 | 
NC(=O)c1c(NC(=O)CSc2nnc(C3CC3)n2C2CC2)sc2c1CCCC2 [2-A2, 2-{2-[(dicyclopropyl-4H-1,2,4-triazol-3-yl)sulfanyl]acetamido}-4,5,6,7-tetrahydro-1-benzothiophene-3-carboxamide] | 4 | 
CC(=O)NC12CC3CC(C1)CC(C(=O)NCCSCc1ccc(C)cc1)(C3)C2 [3-acetamido-N-(2-{[(4-methylphenyl)methyl]sulfanyl}ethyl)adamantane-1-carboxamide] |  | Solubility in DMSO [1]: Insoluble
Cc1ccc(C(=O)C(C)Sc2nnc3c(=O)n(-c4ccccc4)ccn23)cc1C (stereo not drawn) [3-{[1-(3,4-dimethylphenyl)-1-oxopropan-2-yl]sulfanyl}-7-phenyl-7H,8H-[1,2,4]triazolo[4,3-a]pyrazin-8-one] |  | Solubility in DMSO [1]: Insoluble
Cc1ccc(C(=O)C(C)Sc2nnc3c(=O)n(-c4ccc(Br)cc4)ccn23)cc1C (stereo not drawn) [7-(4-bromophenyl)-3-{[1-(3,4-dimethylphenyl)-1-oxopropan-2-yl]sulfanyl}-7H,8H-[1,2,4]triazolo[4,3-a]pyrazin-8-one] |  | Solubility in DMSO [1]: Insoluble
COc1cc(Cl)c(C)cc1N1C(=O)[C@@H]2C[C@H]1CN2Cc1cccn1-c1ncccn1 [(1S,4S)-2-(4-chloro-2-methoxy-5-methylphenyl)-5-{[1-(pyrimidin-2-yl)-1H-pyrrol-2-yl]methyl}-2,5-diazabicyclo[2.2.1]heptan-3-one] |  | Solubility in DMSO [1]: Insoluble
CC1CCCCC1NC(=O)NCCSCc1ccccc1 (stereo not drawn) [A10, 1-[2-(benzylsulfanyl)ethyl]-3-(2-methylcyclohexyl)urea] | 72 | 
O=C(Nc1cc(CSCCOC(=O)C2C3CCCCC32)ccn1)C1C2CCCCC21 (stereo not drawn) [A12, 2-{[(2-{bicyclo[4.1.0]heptane-7-amido}pyridin-4-yl)methyl]sulfanyl}ethyl bicyclo[4.1.0]heptane-7-carboxylate] | 31 | 
CC(c1cccc([N+](=O)[O-])c1)N(C)CC(=O)NCCSCc1ccccc1C#N (stereo not drawn) [B05, N-(2-{[(2-cyanophenyl)methyl]sulfanyl}ethyl)-2-{methyl[1-(3-nitrophenyl)ethyl]amino}acetamide] | 15 | 
Cc1cccc(NC(=O)CSCC(=O)N(Cc2ccc(N(C)C)cc2)C(C)C)c1 [B12, N-{[4-(dimethylamino)phenyl]methyl}-2-({[(3-methyl-phenyl)carbamoyl]methyl}sulfanyl)-N-(propan-2-yl)acetamide] | 26 | 
O=C1CC(SCCc2nc3ccccc3[nH]2)C(=O)N1c1cccc(F)c1 (stereo not drawn) [D9] |  | fusogenic activity (mitochondrial elongation), in words (Mfn2 null MEFs): no true fusogenic activity; also recorded: failed validation in the secondary screen
Cc1ccc(CSCCNC(=O)C2CCN(c3ccc4nnc(C(F)(F)F)n4n3)CC2)cc1 [N-(2-{[(4-methylphenyl)methyl]sulfanyl}ethyl)-1-[3-(trifluoromethyl)-[1,2,4]triazolo[4,3-b]pyridazin-6-yl]piperidine-4-carboxamide] |  | Solubility in DMSO [1]: Insoluble
CC(Sc1nc(C2CC2)nc2c1c(=O)[nH]c(=O)n2C1CC1)C(=O)NCC1CCCCC1 (stereo not drawn) [N-(cyclohexylmethyl)-2-({2,8-dicyclopropyl-5,7-dioxo-5H,6H,7H,8H-pyrimido[4,5-d][1,3]diazin-4-yl}sulfanyl)propanamide] |  | Solubility in DMSO [1]: Insoluble
Cc1ccc(SC(C)C(=O)Nc2ccc(NS(=O)(=O)c3ccc4c(c3)OCCCO4)cc2)cc1 (stereo not drawn) [N-[4-(3,4-dihydro-2H-1,5-benzodioxepine-7-sulfonamido)phenyl]-2-[(4-methylphenyl)sulfanyl]propanamide] |  | Solubility in DMSO [1]: Insoluble
CCc1nnc(SC(CC)C(=O)N(CC)c2cccc(C)c2)c2cc3occc3n12 (stereo not drawn) [N-ethyl-2-({12-ethyl-5-oxa-1,10,11-triazatricyclo[6.4.0.0^2,^6]dodeca-2(6),3,7,9,11-pentaen-9-yl}sulfanyl)-N-(3-methylphenyl)butanamide] |  | Solubility in DMSO [1]: Insoluble
CC(c1cccc([N+](=O)[O-])c1)N(C)CC(=O)NCCSCc1ccccc1C#N (stereo not drawn) [drawing 250] |  | Fusogenicity Rank (Mfn2 null MEFs; rank by aspect ratio among 44 soluble compounds): 16
